Measurements published in PMC2806265, “Divergence of allosteric effects of rapacuronium on binding and function of muscarinic receptors” (BMC Pharmacology, 2009).
Marks after values point to notes of the source that are not given here.

Experiments:
M5 muscarinic receptor [1] = biological target: T1, M5 muscarinic receptor (Homo sapiens, UniProt P08912); assay: [35S]GTPγS binding to membranes; assay type: biochemical; design: host or cells: CHO cells, stably transfected; membranes; conditions: for EMAX of ACh on [^35S]GTPγS binding: fold of basal
T1 sequence (P08912 1-532): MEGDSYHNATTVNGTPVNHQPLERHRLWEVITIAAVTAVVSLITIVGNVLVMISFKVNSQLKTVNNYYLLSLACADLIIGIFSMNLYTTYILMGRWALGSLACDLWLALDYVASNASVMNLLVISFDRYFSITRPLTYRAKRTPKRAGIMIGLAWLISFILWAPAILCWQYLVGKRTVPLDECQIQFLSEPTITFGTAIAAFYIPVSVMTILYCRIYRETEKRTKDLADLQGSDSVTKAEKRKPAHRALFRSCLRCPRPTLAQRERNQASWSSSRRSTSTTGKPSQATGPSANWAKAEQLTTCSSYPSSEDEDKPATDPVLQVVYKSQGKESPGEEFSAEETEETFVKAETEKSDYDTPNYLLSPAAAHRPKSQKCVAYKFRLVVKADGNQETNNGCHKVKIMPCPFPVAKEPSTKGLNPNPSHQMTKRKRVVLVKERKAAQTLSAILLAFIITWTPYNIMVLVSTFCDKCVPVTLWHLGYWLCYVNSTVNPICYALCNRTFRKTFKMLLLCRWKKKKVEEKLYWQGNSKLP
Procedure: (§2) For determination of [^35S]GTPγS binding to G-proteins in membranes a final concentration of 200 pM (M1, M3 and M5 receptors) or 500 pM (M2 and M4 receptors) of [^35S]GTPγS was used. Incubation medium was supplemented with 5 μM (M1, M3 and M5 receptors) or 50 μM (M2 and M4 receptors) GDP. […] Incubation with [^35S]GTPγS was carried out for 20 min and free ligand was removed by filtration as described above. Filtration and washing with ice-cold water lasted for 9 s (wash-aspirate button time).

M2 muscarinic receptor [2] = biological target: T2, M2 muscarinic receptor (Homo sapiens, UniProt P08172); assay: Effect of rapacuronium on low-affinity ACh binding ([3H]NMS + GTPγS + ACh); design: host or cells: CHO cells, stably transfected; membrane preparation
T2 sequence (P08172 1-466): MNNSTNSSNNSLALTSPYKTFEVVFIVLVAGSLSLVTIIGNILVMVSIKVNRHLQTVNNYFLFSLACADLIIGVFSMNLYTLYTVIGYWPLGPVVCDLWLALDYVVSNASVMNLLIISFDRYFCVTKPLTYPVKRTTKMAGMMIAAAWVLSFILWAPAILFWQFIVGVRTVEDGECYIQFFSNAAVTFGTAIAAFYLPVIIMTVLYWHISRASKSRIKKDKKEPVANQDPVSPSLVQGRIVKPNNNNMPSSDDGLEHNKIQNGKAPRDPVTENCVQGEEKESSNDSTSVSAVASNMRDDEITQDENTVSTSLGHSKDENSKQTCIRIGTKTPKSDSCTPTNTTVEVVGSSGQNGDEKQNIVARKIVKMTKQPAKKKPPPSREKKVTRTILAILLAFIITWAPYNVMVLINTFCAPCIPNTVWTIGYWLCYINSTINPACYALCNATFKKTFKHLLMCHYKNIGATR
Text: Data are expressed as percent of specific binding in the absence of rapacuronium. […] Data are means ± SE from 3 independent experiments performed in quadruplicates. Curves are fits of Eq. 3 (circles) and Eq. 4 (squares and triangles) to data prior to normalization.

M2 muscarinic receptor [3] = biological target: T2, M2 muscarinic receptor; assay: [3H]NMS dissociation
Text: (§3) y, radioligand binding at time x normalized to binding at time 0; koff1 and koff2, dissociation rate constants; f2, fraction of binding site with dissociation rate constant koff2. When both Eq. 7a and 7b were fitted to data the better fit was chosen based on sum of squares F-test and runs test.

M4 muscarinic receptor [4] = biological target: T3, M4 muscarinic receptor (Homo sapiens, UniProt P08173); assay: [3H]NMS saturation binding
T3 sequence (P08173 1-479): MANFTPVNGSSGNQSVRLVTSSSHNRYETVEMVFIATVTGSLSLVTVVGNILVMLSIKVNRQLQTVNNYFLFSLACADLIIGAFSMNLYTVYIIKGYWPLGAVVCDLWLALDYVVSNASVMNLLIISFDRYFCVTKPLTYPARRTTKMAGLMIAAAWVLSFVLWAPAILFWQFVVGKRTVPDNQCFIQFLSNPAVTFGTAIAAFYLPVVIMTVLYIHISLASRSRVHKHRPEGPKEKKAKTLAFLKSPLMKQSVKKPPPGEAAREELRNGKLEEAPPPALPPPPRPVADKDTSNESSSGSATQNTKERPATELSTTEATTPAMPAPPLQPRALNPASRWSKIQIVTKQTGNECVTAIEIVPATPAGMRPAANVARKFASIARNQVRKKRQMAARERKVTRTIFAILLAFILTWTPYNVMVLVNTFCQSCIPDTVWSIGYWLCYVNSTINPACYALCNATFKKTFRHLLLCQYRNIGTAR
Text: BMAX, maximum binding capacity; KD, equilibrium dissociation constant.

M1 muscarinic receptor = biological target: T4, M1 muscarinic receptor (Homo sapiens, UniProt P11229); assay: Effect of rapacuronium on 1 nM [3H]NMS binding
T4 construct: host or cells: CHO cells, stably transfected; membrane preparation
T4 sequence (P11229 1-460): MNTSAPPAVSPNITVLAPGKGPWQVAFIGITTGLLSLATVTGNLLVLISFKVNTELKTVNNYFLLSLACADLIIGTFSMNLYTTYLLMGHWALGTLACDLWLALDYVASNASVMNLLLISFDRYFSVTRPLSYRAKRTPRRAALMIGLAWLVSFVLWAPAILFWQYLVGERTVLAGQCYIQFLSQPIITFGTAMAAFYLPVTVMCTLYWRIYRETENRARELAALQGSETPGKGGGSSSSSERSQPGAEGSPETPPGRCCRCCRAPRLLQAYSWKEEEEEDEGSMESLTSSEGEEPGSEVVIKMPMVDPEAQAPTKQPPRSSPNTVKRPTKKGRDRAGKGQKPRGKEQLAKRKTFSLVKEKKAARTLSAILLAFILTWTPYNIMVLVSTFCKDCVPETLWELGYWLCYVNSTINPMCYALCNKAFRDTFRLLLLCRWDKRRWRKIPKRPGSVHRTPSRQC
Text: (§1) Cooperativity factor greater than 1 denotes negative cooperativity and less than 1 positive cooperativity. Due to its log-normal error distribution factors of cooperativity are expressed as negative logarithms (pα) through the manuscript so negative values denotes negative cooperativity and positive value denotes positive cooperativity.

M3 muscarinic receptor = biological target: T5, M3 muscarinic receptor (Homo sapiens, UniProt P20309); assay: Effect of rapacuronium on 1 nM [3H]NMS binding
T5 construct: host or cells: CHO cells, stably transfected; membranes
T5 sequence (P20309 whole entry): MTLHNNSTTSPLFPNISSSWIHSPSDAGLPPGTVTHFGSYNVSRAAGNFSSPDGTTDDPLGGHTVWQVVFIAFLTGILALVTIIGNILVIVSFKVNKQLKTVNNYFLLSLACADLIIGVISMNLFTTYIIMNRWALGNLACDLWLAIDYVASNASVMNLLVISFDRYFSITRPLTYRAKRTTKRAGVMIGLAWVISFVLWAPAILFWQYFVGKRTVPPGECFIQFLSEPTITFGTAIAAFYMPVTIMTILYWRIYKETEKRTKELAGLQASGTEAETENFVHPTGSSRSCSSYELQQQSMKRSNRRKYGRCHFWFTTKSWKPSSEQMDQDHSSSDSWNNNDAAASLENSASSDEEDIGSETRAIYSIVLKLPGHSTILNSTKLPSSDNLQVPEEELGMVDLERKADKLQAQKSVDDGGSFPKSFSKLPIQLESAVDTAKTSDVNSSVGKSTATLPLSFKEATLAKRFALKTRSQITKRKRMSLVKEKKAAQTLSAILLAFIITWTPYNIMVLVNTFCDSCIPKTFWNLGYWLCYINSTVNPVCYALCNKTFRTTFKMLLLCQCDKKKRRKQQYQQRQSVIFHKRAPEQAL
Text: as §1

M5 muscarinic receptor [5] = biological target: T1, M5 muscarinic receptor; assay: [3H]NMS dissociation
Text: as §3

M4 muscarinic receptor [6] = biological target: T3, M4 muscarinic receptor; assay: [35S]GTPγS binding to membranes; assay type: biochemical; design: host or cells: CHO cells, stably transfected; membranes; conditions: for EMAX of ACh on [^35S]GTPγS binding: fold of basal
Procedure: as §2

[7] = read-out: pKA of rapacuronium (converted)

Compound: C=CC[N+]1([C@H]2C[C@H]3[C@@H]4CC[C@H]5C[C@H](OC(C)=O)[C@@H](N6CCCCC6)C[C@]5(C)[C@H]4CC[C@]3(C)[C@H]2OC(=O)CC)CCCCC1 [rapacuronium]
- EC50 (M5 muscarinic receptor [1]): 61.7 µM
- decrease in ACh EC50 (M5 muscarinic receptor [1]; M5, 0.1 μM rapacuronium): 1.5 fold
- decrease in ACh EC50 (M5 muscarinic receptor [1]; M5, 1 μM rapacuronium): 4 fold
- EMAX of ACh on [^35S]GTPγS binding (M5 muscarinic receptor [1]; M5, + 0.1 μM rapacuronium): 2.10 ± 0.09
- EMAX of ACh on [^35S]GTPγS binding (M5 muscarinic receptor [1]; M5, + 1 μM rapacuronium): 2.04 ± 0.09
- EMAX of ACh on [^35S]GTPγS binding (M5 muscarinic receptor [1]; M5, + 10 μM rapacuronium): 2.22 ± 0.09
- EMAX of rapacuronium on [^35S]GTPγS binding (M5 muscarinic receptor [1]; M5, rapacuronium alone, normalized to absence of rapacuronium): 0.75 ± 0.07
- pβ, cooperativity with ACh low affinity binding (M2 muscarinic receptor [2]; M2, negative value = negative cooperativity): -1.52 ± 0.06
- Kd (M2 muscarinic receptor [2]; [7]): 2.75 µM
- decrease in rate of [^3H]NMS dissociation (M2 muscarinic receptor [3]; 100 μM rapacuronium): 7 fold
- f2, fraction of sites with faster dissociation (M2 muscarinic receptor [3]; + 100 μM rapacuronium): 23 ± 5%
- koff1 of [^3H]NMS dissociation (M2 muscarinic receptor [3]; + 100 μM rapacuronium): 0.026 ± 0.002* min^-1
- koff2 of [^3H]NMS dissociation (M2 muscarinic receptor [3]; + 100 μM rapacuronium): 0.0127 ± 0.00183 s⁻¹
- BMAX of [^3H]NMS (M4 muscarinic receptor [4]; + 10 μM rapacuronium): 1.17 ± 0.13 fmol/μg of protein
- BMAX of [^3H]NMS (M4 muscarinic receptor [4]; + 100 μM rapacuronium): 1.06 ± 0.10 fmol/μg of protein
- pα, cooperativity with [^3H]NMS (M1 muscarinic receptor; M1, negative value = negative cooperativity): -1.08 ± 0.05
- Kd (M1 muscarinic receptor; [7]): 4.27 µM
- pα, cooperativity with [^3H]NMS (M3 muscarinic receptor; M3, negative value = negative cooperativity): -1.11 ± 0.05
- Kd (M3 muscarinic receptor; [7]): 17.8 µM
- decrease in rate of [^3H]NMS dissociation (M5 muscarinic receptor [5]; 100 μM rapacuronium): 40%
- koff1 of [^3H]NMS dissociation (M5 muscarinic receptor [5]; + 100 μM rapacuronium, monophasic): 0.0078 ± 0.0004* min^-1
- EC50 (M4 muscarinic receptor [6]): 36.3 µM
- EMAX of ACh on [^35S]GTPγS binding (M4 muscarinic receptor [6]; M4, + 0.1 μM rapacuronium): 2.95 ± 0.11
- EMAX of ACh on [^35S]GTPγS binding (M4 muscarinic receptor [6]; M4, + 1 μM rapacuronium): 2.80 ± 0.12
- EMAX of ACh on [^35S]GTPγS binding (M4 muscarinic receptor [6]; M4, + 10 μM rapacuronium): 2.32 ± 0.16
- EMAX of rapacuronium on [^35S]GTPγS binding (M4 muscarinic receptor [6]; M4, rapacuronium alone, normalized to absence of rapacuronium): 0.86 ± 0.06
